The source of these data is ChEMBL document CHEMBL5375986, “Discovery of Lead 2-Thiazolylhydrazones with Broad-Spectrum and Potent Antifungal Activity” (J Med Chem, 2023).

≈ marks a conversion by molar mass, not a printed value.

Series [1] has as its system Cryptococcus neoformans. The series is described as follows: Antifungal activity against Cryptococcus neoformans ATCC 24067 assessed as inhibition of fungal growth incubated for 24 to 48 hrs by CLSI based broth microdilution method. The series is classed as functional. To be noted: time 24-48 hrs. Background: Broth dilution looks for growth in wells or tubes with falling amounts of substance.

A short description of series [2]: Antifungal activity against Cryptococcus gattii ATCC 24065 assessed as inhibition of fungal growth incubated for 24 to 48 hrs by CLSI protocol based broth microdilution method. It counts as functional, Cryptococcus gattii VGI. To be noted: time 24-48 hrs.
For series [3], the system named is Candida albicans. The series is described as follows: Antifungal activity against Candida albicans SC5314 assessed as inhibition of fungal growth incubated for 24 to 48 hrs by CLSI protocol based broth microdilution method. It counts as functional. The note with it: time 24-48 hrs.
Series [4] has as its system Nakaseomyces glabratus. The series is described as follows: Antifungal activity against Candida glabrata ATCC 2001 assessed as inhibition of fungal growth incubated for 24 to 48 hrs by CLSI protocol based broth microdilution method. It counts as functional. The note with it: time 24-48 hrs.
Series [5] relates to Pichia kudriavzevii. The series is described as follows: Antifungal activity against Candida krusei ATCC 20298 assessed as inhibition of fungal growth incubated for 24 to 48 hrs by CLSI protocol based broth microdilution method. The note with it: time 24-48 hrs. The series is classed as functional.
In series [6] the test system is Candida parapsilosis. The series is described as follows: Antifungal activity against Candida parapsilosis ATCC 22019 assessed as inhibition of fungal growth incubated for 24 to 48 hrs by CLSI protocol based broth microdilution method. The series is classed as functional. To be noted: Lodderomyces parapsilosis, time 24-48 hrs.
The subject of series [7] is Candida tropicalis. The series is described as follows: Antifungal activity against Candida tropicalis ATCC 750 assessed as inhibition of fungal growth incubated for 24 to 48 hrs by CLSI protocol based broth microdilution method. To be noted: time 24-48 hrs. It counts as functional.
In series [8] the test system is [Candida] auris. The series is described as follows: Antifungal activity against Candida auris COLO 01 assessed as inhibition of fungal growth incubated for 24 to 48 hrs by CLSI protocol based broth microdilution method. To be noted: Candidozyma auris, time 24-48 hrs. It counts as functional.
Series [9] is described as follows: Cytotoxicity against human PBMC cells assessed as inhibition of cell growth incubated for 24 to 48 hrs by MTT assay. The series is classed as toxicity, cell-based. A general note: Tetrazolium dyes change colour on reduction, which living cells bring about.
Series [10] concerns Caco-2. The series is described as follows: Cytotoxicity against human Caco-2 cells assessed as reduction in cell viability at 10 to 40 microg/ml measured upto 12 hrs by MTT assay. The series is classed as functional. To be noted: dose 10-40 µg/ml, at 10 to 40 µg/mL.
Series [11] in a line: Apparent permeability across apical to basolateral side in human Caco-2 cells measured after 30 to 180 mins by HPLC-MS analysis. The series is classed as ADME, cell-based. To be noted: time 30-180 min. Background: Caco-2 monolayers are a common model of the intestinal barrier.
Series [12] can be described thus: Apparent permeability across basolateral to apical side in human Caco-2 cells measured after 30 to 180 mins by HPLC-MS analysis. It counts as ADME, cell-based. The note with it: time 30-180 min.
Series [13] in a line: Efflux ratio of apparent permeability across basolateral to apical over apical to basolateral side in human Caco-2 cells measured after 30 to 180 mins by HPLC-MS analysis. It counts as ADME, cell-based. To be noted: time 30-180 min.
In series [14] the test system is Cryptococcus neoformans. The series is described as follows: Antifungal activity against Cryptococcus neoformans H99 infected in Tenebrio molitor larvae assessed as survival rate of larvae at 80 microg/ml measured after 24 hrs. The series is classed as functional.
The test system of series [15] is Candida albicans. The series is described as follows: Antifungal activity against Candida albicans assessed as inhibition of fungal growth. The series is classed as functional.
Series [16] relates to Cryptococcus neoformans. The series is described as follows: Antifungal activity against Cryptococcus neoformans assessed as inhibition of fungal growth. The series is classed as functional.
A short description of series [17]: Antifungal activity against Cryptococcus gattii VGI assessed as inhibition of fungal growth. It counts as functional.

Regarding `CCOC(=O)Cc1csc(N/N=C(\C)CCC(=O)O)n1`, the minimum inhibitory concentration (MIC) in series [1] is 3.2 µM (≈ 0.958 µg/mL); in series [2], 3.2 µM (≈ 0.958 µg/mL); in series [3], 3.2 µM (≈ 0.958 µg/mL); in series [4] it was 52.2 µM (≈ 15.6 µg/mL); in [5] it was 0.8 µM (≈ 0.239 µg/mL); in series [6], 1.6 µM (≈ 0.479 µg/mL). For the same compound, the MIC came to 0.8 µM (≈ 0.239 µg/mL) in series [7] and 1.6 µM (≈ 0.479 µg/mL) in series [8]. Besides, the IC50 in series [9] is over 500 µM. Also, the Activity in [10] is recorded as over 70%. Moreover, in series [11], the Papp A→B is 14.7 nm/s. The Papp B→A in series [12] stood at 52.6 nm/s. Besides, the efflux ratio in series [13] worked out at 3.58. In addition, in series [14], the survival at 80 µg/mL stood at 63%.

For `CC(CCO)=NNc1nc(-c2ccc(C#N)cc2)cs1`, the MIC in series [15] amounted to 1.95 µM (≈ 0.558 µg/mL); in [16], 0.12 µM (≈ 0.0344 µg/mL); in series [17], 0.12 µM (≈ 0.0344 µg/mL).

As for `Nc1ccn([C@@H]2O[C@H](CO)[C@@H](O)[C@@H]2O)c(=O)n1` [CYTARABINE], in [9], the IC50 was found to be 181 µM.

On to `Cc1ccc(NC(=O)c2ccc(CN3CCN(C)CC3)cc2)cc1Nc1nccc(-c2cccnc2)n1` [IMATINIB], for which the IC50 in [9] came to 159 µM.

For orientation: MIC means the lowest concentration found to suppress growth. One may read the IC50 as the concentration at which inhibition is half-maximal. As usually defined, the Papp A→B is the apparent permeability from the apical to the basolateral side of a cell layer. The Papp B→A is the apparent permeability from the basolateral to the apical side of a cell layer. A word on the efflux ratio: it is a quotient of directional permeabilities that is used to spot active efflux.
